Source: PubChem BioAssay (NCI)
Values joined by “and” are separate entries in the source; they are usually repeats but may differ in a detail not shown here. Equal entries are not always repeated.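 Each compound was tested at five concentrations against cells in 96-well plates for 48 hours. The concentration for 50% growth inhibition is given as GI50. TGI: concentration producing complete growth inhibition.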

Columns and labels:
Experiment in all cases: DTP human tumour cell line panel, 48 h
A498 renal = system: A498 renal
HL-60(TB) leukemia = system: HL-60(TB) leukemia
K-562 leukemia = system: K-562 leukemia
M14 melanoma = system: M14 melanoma
NCI-H226 lung = system: NCI-H226 lung
NCI-H522 lung = system: NCI-H522 lung
OVCAR-3 ovarian = system: OVCAR-3 ovarian
OVCAR-4 ovarian = system: OVCAR-4 ovarian
SF-295 CNS = system: SF-295 CNS
TK-10 renal = system: TK-10 renal

Row | Compound | TGI (A498 renal) | TGI (HL-60(TB) leukemia) | TGI (K-562 leukemia) | TGI (M14 melanoma) | TGI (NCI-H226 lung) | TGI (NCI-H522 lung) | TGI (OVCAR-3 ovarian) | TGI (OVCAR-4 ovarian) | TGI (SF-295 CNS) | TGI (TK-10 renal) | GI50 (OVCAR-3 ovarian) | GI50 (SF-295 CNS) | GI50 (A498 renal) | GI50 (HL-60(TB) leukemia) | GI50 (K-562 leukemia) | GI50 (M14 melanoma) | GI50 (NCI-H226 lung) | GI50 (NCI-H522 lung) | GI50 (OVCAR-4 ovarian) | GI50 (TK-10 renal)
1 | CC(C)C1(O)C(c2ccccc2)=C(c2ccccc2)C(c2ccccc2)=C1c1ccccc1 | 56.3 µM | 7.07 µM | > 100 µM | 22.4 µM | 31.6 µM | 23.9 µM | 27.8 µM | > 100 µM | 30.2 µM | 56.3 µM |  |  |  |  |  |  |  |  |  | 
2 | COc1ccc(-c2oc3c(OC)c(OC)c(OC)c(O)c3c(=O)c2OC)cc1OC | > 64.8 µM | 26.1 µM | > 54.3 µM | > 100 µM | > 88.7 µM | 44.6 µM | > 93.6 µM | > 100 µM | > 76.5 µM | > 100 µM |  |  |  |  |  |  |  |  |  | 
3 | COC(=O)C1C(O)CC(c2ccccn2)N(Cc2ccccc2)C1c1ccccn1 (configuration not stated) | > 100 µM | 65.1 µM | > 100 µM | > 100 µM | > 100 µM | > 100 µM | > 100 µM | > 100 µM | > 100 µM | > 100 µM |  |  |  |  |  |  |  |  |  | 
4 | COc1ccc(-c2cc(=O)c3c(C)cc(C)nc3[nH]2)cc1 | > 100 µM | 35.4 µM | > 100 µM | > 100 µM | > 100 µM | > 100 µM | > 100 µM | > 100 µM | > 100 µM | 99.2 µM | 32.7 µM | 42.5 µM |  |  |  |  |  |  |  | 
5 | O=C1C(c2c[nH]c3ccccc23)=C(c2c[nH]c3ccccc23)C(=O)N1O | > 25 µM | > 25 µM | > 25 µM | > 25 µM | > 25 µM | > 25 µM | > 25 µM | > 25 µM | > 25 µM | > 25 µM | > 25 µM | > 25 µM | 8.1 µM | > 25 µM | > 25 µM | > 25 µM | > 25 µM | > 25 µM | > 25 µM | > 25 µM
6 | O=[N+]([O-])c1c(Br)cc(Br)c2c1Nc1c(ccc(Cl)c1Cl)S2 | 39.1 µM | > 23.9 µM | 17.3 µM | 23.6 µM | 31.6 µM | 20.5 µM | 9.5 µM | 28.7 µM | 39.1 µM | 37.1 µM |  |  |  |  |  |  |  |  |  | 
7 | Oc1ccc(C(c2ccc(O)cc2)c2ccc(Cl)cn2)cc1 | 26.5 µM | 22 µM | > 100 µM | > 100 µM | > 45.8 µM | 69.8 µM | 0.0769 µM | 0.0598 µM | 7.21 µM | 0.525 µM | 0.0266 µM | 0.403 µM | 0.344 µM | 3.56 µM | 13.5 µM | 21.3 µM | 1.93 µM | 2.63 µM | 0.0243 µM | 0.0951 µM
8 | CC1OC(OCC2OC(Oc3c(-c4ccc(O)cc4)oc4cc(O)cc(O)c4c3=O)C(OC3OC(C)C(O)C(O)C3O)C(O)C2O)C(O)C(O)C1O (configuration not stated) | > 100 µM | > 100 µM | > 31.6 µM | > 100 µM | > 100 µM | > 100 µM | > 100 µM | > 90.2 µM | > 100 µM | > 100 µM |  |  |  |  |  |  |  |  |  | 
9 | CC1CCP(=O)(c2ccccc2)c2ccccc21 (configuration not stated) | > 100 µM | 41.1 µM | 62.9 µM | > 100 µM | > 100 µM | > 100 µM | > 100 µM | > 100 µM | > 100 µM | > 100 µM |  |  |  |  |  |  |  |  |  | 
10 | CC(=O)NNc1nc(C)c(C(=O)NNC(=O)C(=O)Nc2c(C)cccc2C)s1 | > 100 µM | 77.6 µM | > 100 µM | > 100 µM | > 100 µM | 32.8 µM | 65.3 µM | > 100 µM | > 100 µM | > 100 µM |  |  |  |  |  |  |  |  |  | 
11 | COc1cc(/C=C\c2ccccc2)cc(OC)c1OC | > 41.1 µM | 6.34 µM | > 43.2 µM | 22.1 µM | 24.1 µM | 7.26 µM | 5.58 µM | > 61 µM | 7.21 µM | > 50.3 µM |  |  |  |  |  |  |  |  |  | 
12 | CCCC(=O)Nc1cc(C(=O)N2C[C@@H]3C[C@]34C2=CC(=O)c2[nH]cc(C)c24)n(COC)c1 | 19.2 µM and 25.1 µM | 7.8 µM | 50 µM and > 100 µM | 50 µM and 5.96 µM | 42.1 µM | 3.57 µM and 2.43 µM | 24.4 µM and 5.09 µM | 20.3 µM and 19.9 µM | 50 µM and 20.4 µM | 23 µM and 7.37 µM | 2.58 µM | 5.4 µM |  |  | 2.04 µM | 2.05 µM |  |  |  | 3.3 µM
13 | COc1ccccc1/C=C/[N+](=O)[O-] | 5.03 µM | 4.49 µM | 7.37 µM | 3.94 µM | 11.7 µM | 2.47 µM | 4.67 µM | 37.7 µM | 20.5 µM | 6.31 µM | 2.23 µM | 4.67 µM | 1.93 µM | 1.92 µM | 1.56 µM | 1.89 µM | 3.41 µM | 1.08 µM | 3.56 µM | 2.81 µM
14 | CCOC(=O)/C(O)=C/c1cc(OC)cc(=O)o1 | > 100 µM | > 100 µM | > 100 µM | > 100 µM | > 100 µM | > 100 µM | > 100 µM | > 100 µM | > 100 µM | > 100 µM |  |  |  |  |  |  |  |  |  | 
15 | O=C1C=C(NCCNC(=S)Nc2ccccc2)c2nccc3c2c1nc1ccccc13 | > 100 µM | > 100 µM | > 100 µM | > 100 µM | > 100 µM | > 100 µM | > 100 µM | > 100 µM | > 100 µM | > 100 µM | 18.1 µM | 39.7 µM | > 100 µM | 17.4 µM | 35.1 µM | 39.3 µM | 70 µM | 46.8 µM | 92.7 µM | 51.9 µM
16 | CCc1n(Cc2ccc3ccccc3n2)cc[n+]1Cc1ccc2ccccc2n1 | 9.38 µM | 0.262 µM | 16.1 µM | 21.7 µM | 30.8 µM | 1.49 µM | 6.66 µM | 10.4 µM | 20.1 µM | 26.3 µM | 0.0878 µM | 2.81 µM | 0.303 µM | 0.0329 µM | 0.493 µM | 2.93 µM | 2.56 µM | 0.0837 µM | 0.0378 µM | 5.5 µM
